Data as given in the supplement of paper PMC8612539.
≈ marks a conversion by molar mass, not a printed value.

How the values were obtained:
Pasteurella multocida = assay: minimum inhibitory concentration (MIC)
Protocol: (§1)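 Broth microdilution MIC (Sensititre BOPO7F bovine plate, CLSI methods) of 19 antimicrobials against field isolates of P. multocida, M. haemolytica, H. somni (deep nasopharyngeal swabs) and E. coli, Enterococcus spp. (rectal swabs) from weaned dairy heifers. Incubation 16-24 h at 35 C. MIC is the lowest concentration preventing visible growth. Values with <= or > lie at the tested range limits. Trimethoprim-sulfamethoxazole is given as the trimethoprim component of a 1:19 mixture.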

Enterococcus spp. = assay: minimum inhibitory concentration (MIC)
Protocol: as §1

CC1(C)S[C@@H]2[C@H](NC(=O)[C@H](N)c3ccccc3)C(=O)N2[C@H]1C(=O)O [Ampicillin]
minimum inhibitory concentration [µg/mL]
Settings	Enterococcus spp.	Pasteurella multocida
isolate (source animal id): 2	≤ 0.25	–
isolate (source animal id): 35	1 (≈ 2.86 µM)	–
isolate (source animal id): 42	1 (≈ 2.86 µM)	–
isolate (source animal id): 44	1 (≈ 2.86 µM)	–
isolate (source animal id): 79	1 (≈ 2.86 µM)	–
isolate (source animal id): 88	≤ 0.25	–
isolate (source animal id): 91	≤ 0.25	–
isolate (source animal id): 92	0.5 (≈ 1.43 µM)	–
isolate (source animal id): 111	≤ 0.25	–
isolate (source animal id): 122	1 (≈ 2.86 µM)	–
isolate (source animal id): 123	1 (≈ 2.86 µM)	–
isolate (source animal id): 133	0.5 (≈ 1.43 µM)	–
isolate (source animal id): 158	1 (≈ 2.86 µM)	–
isolate (source animal id): 168	1 (≈ 2.86 µM)	–
isolate (source animal id): 169	1 (≈ 2.86 µM)	–
isolate (source animal id): 171	0.5 (≈ 1.43 µM)	–
isolate (source animal id): 175	1 (≈ 2.86 µM)	–
isolate (source animal id): 177	1 (≈ 2.86 µM)	–
isolate (source animal id): 181	1 (≈ 2.86 µM)	–
isolate (source animal id): 182	2 (≈ 5.72 µM)	–
isolate (source animal id): 183	1 (≈ 2.86 µM)	–
isolate (source animal id): 187	2 (≈ 5.72 µM)	–
isolate (source animal id): 190	2 (≈ 5.72 µM)	–
isolate (source animal id): 194	0.5 (≈ 1.43 µM)	–
isolate (source animal id): 195	1 (≈ 2.86 µM)	–
isolate (source animal id): 197	0.5 (≈ 1.43 µM)	–
isolate (source animal id): 211	1 (≈ 2.86 µM)	–
isolate (source animal id): 214	0.5 (≈ 1.43 µM)	–
isolate (source animal id): 222	0.5 (≈ 1.43 µM)	–
isolate (source animal id): 223	0.5 (≈ 1.43 µM)	–
isolate (source animal id): 228	1 (≈ 2.86 µM)	–
isolate (source animal id): 230	2 (≈ 5.72 µM)	–
isolate (source animal id): 235	1 (≈ 2.86 µM)	–
isolate (source animal id): 236	0.5 (≈ 1.43 µM)	–
isolate (source animal id): 239	0.5 (≈ 1.43 µM)	–
isolate (source animal id): 241	2 (≈ 5.72 µM)	–
isolate (source animal id): 244	0.5 (≈ 1.43 µM)	–
isolate (source animal id): 246	1 (≈ 2.86 µM)	–
isolate (source animal id): 247	2 (≈ 5.72 µM)	–
isolate (source animal id): 250	0.5 (≈ 1.43 µM)	–
isolate (source animal id): 252	1 (≈ 2.86 µM)	–
isolate (source animal id): 268	≤ 0.25	–
isolate (source animal id): 269	–	≤ 0.25
isolate (source animal id): 270	–	≤ 0.25
isolate (source animal id): 274	–	≤ 0.25
isolate (source animal id): 275	–	≤ 0.25
isolate (source animal id): 276	–	≤ 0.25
isolate (source animal id): 277	–	≤ 0.25
isolate (source animal id): 278	–	≤ 0.25
isolate (source animal id): 279	–	≤ 0.25
isolate (source animal id): 280	–	≤ 0.25
isolate (source animal id): 282	1 (≈ 2.86 µM)	–
isolate (source animal id): 284	–	≤ 0.25
isolate (source animal id): 285	1 (≈ 2.86 µM)	≤ 0.25
isolate (source animal id): 287	–	≤ 0.25
isolate (source animal id): 289	≤ 0.25	–
isolate (source animal id): 290	≤ 0.25	≤ 0.25
isolate (source animal id): 294	–	≤ 0.25
isolate (source animal id): 295	–	≤ 0.25
isolate (source animal id): 296	≤ 0.25	≤ 0.25
isolate (source animal id): 298	≤ 0.25	–
isolate (source animal id): 301	≤ 0.25	–
isolate (source animal id): 307	–	≤ 0.25
isolate (source animal id): 310	1 (≈ 2.86 µM)	≤ 0.25
isolate (source animal id): 311	–	≤ 0.25
isolate (source animal id): 312	–	≤ 0.25
isolate (source animal id): 313	–	≤ 0.25
isolate (source animal id): 315	–	≤ 0.25
isolate (source animal id): 316	–	≤ 0.25
isolate (source animal id): 320	≤ 0.25	–
isolate (source animal id): 331	≤ 0.25	–
isolate (source animal id): 333	≤ 0.25	–
isolate (source animal id): 341	0.5 (≈ 1.43 µM)	–
